Laboratory results taken from ChEMBL document CHEMBL1150924, “Triterpenes and saponins from Rudgea viburnioides” (J Nat Prod, 1998).
The source made the active and inactive calls. The calls are words filed in the database; no cut-off is given here.

Assays:
Assay type in all cases: functional, organism-based
[1] = tested on: Cladosporium cladosporioides; assay: Antifungal activity against Cladosporium cladosporioides at 50 ug by TLC bioassay
[2] = tested on: Cladosporium cladosporioides; assay: Antifungal activity against Cladosporium cladosporioides at 1 ug by TLC bioassay
[3] = tested on: Cladosporium cladosporioides; assay: Antifungal activity against Cladosporium cladosporioides at 5 ug by TLC bioassay

C[C@@H]1CC[C@]2(C)CC[C@]3(C)C(=CC[C@@H]4[C@@]5(C)C[C@@H](O)[C@H](O)C(CO)(CO)[C@@H]5CC[C@]43C)[C@@H]2[C@]1(C)O
Activity [1]: Active

Clc1ccc(COC(Cn2ccnc2)c2ccc(Cl)cc2Cl)c(Cl)c1 (stereo not drawn)
Activity [2]: Active

NYSTATIN
Activity [3]: Active
